Publication PMC8957246, “Synthesis and diverse biological activity profile of triethylammonium isatin-3-hydrazones” (ADMET & DMPK, 2022)
Like-named read-outs stand apart in the source and are kept apart here.

Key:
Type in all cases: cell-based
Micrococcus luteus B-109 = experiment: Bactericidal activity, agar diffusion, M. luteus; conditions: Micrococcus luteus, B109, 2 mM/L
Method in brief: (§1)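 Agar diffusion: bacterial lawns on BP agar (GYCa for X. campestris), pH 7.2-7.4, with compound solution (150 μl; stock 2 mmol/l) placed in 6-mm wells. Growth inhibition zone width measured after 36-40 h incubation, bacteria grown at 28°C.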

[1] = tested on: Pectobacterium carotovorum subsp. carotovorum MI; experiment: Bactericidal activity, agar diffusion, P. carotovorum; conditions: Pectobacterium carotovorum; 2 mM/L; 150 μl per well; 36-40 h; read-out: width of the inhibition zone
Method in brief: as §1

[2] = tested on: Candida albicans ATCC 10231; experiment: Antimicrobial activity, serial dilution (MIC/MBC), Ca; conditions: ATCC10231
[3] = tested on: Pseudomonas fluorescens EL-2.1; experiment: Bactericidal activity, agar diffusion, Ps. fluorescens; conditions: Pseudomonas fluorescens, EL2.1, 2 mM/L
Method in brief: as §1

[4] = tested on: Pectobacterium atrosepticum 1043; experiment: Bactericidal activity, agar diffusion, P. atrosepticum; conditions: Pectobacterium atrosepticum, 1043, 2 mM/L
Method in brief: as §1

[5] = tested on: Fusarium oxysporum IBPPM 543; experiment: Fungicidal activity, radial growth inhibition, F. oxysporum
Method in brief: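 Compound solutions mixed into molten GPY agar (~60 °C) at various concentrations; plates centre-inoculated with a 5-mm mycelial block from 10-day cultures and incubated at 27 °C until control plates filled (~12 days). Inhibition is the % decrease in colony radial growth versus untreated control; EC50 = 50C/I.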

[6] = 150 μl per well, 36-40 h, read-out: width of the inhibition zone
[7] = read-out: Inhibition zone width (mm), not less

MIC [2]: > 500 µM
Structure (SMILES): CC[N+](CC)(CC)CC(=O)N/N=C1\C(=O)N(Cc2cc(C(C)(C)C)c(O)c(C(C)(C)C)c2)c2ccc([N+](=O)[O-])cc21 [Compound 3f, 2-(2-(1-(3,5-Di-tert-butyl-4-hydroxybenzyl)-5-nitro-2-oxoindolin-3-ylidene)hydrazinyl)-N,N,N-triethyl-2-oxoethanammonium bromide]
zone of inhibition at 2000 µM (Micrococcus luteus B-109; [6]): 10 mm | zone of inhibition at 2000 µM (Micrococcus luteus B-109; [7]): ≥ 10 mm | zone of inhibition at 2000 µM [1]: 5 mm | MBC [2]: > 500 µM | zone of inhibition at 2000 µM [3, 6]: 10 mm | zone of inhibition at 2000 µM [3, 7]: ≥ 10 mm | zone of inhibition at 2000 µM [4, 6]: 10 mm | zone of inhibition at 2000 µM [4, 7]: ≥ 10 mm | Inhibition value, I (%) ([5]; C 6.47 μg/mL, age of the fungus 3 days): 13% | Inhibition value, I (%) ([5]; C 6.47 μg/mL, age of the fungus 5 days): 11% | Inhibition value, I (%) ([5]; C 6.47 μg/mL, age of the fungus 7 days): 10% | Inhibition value, I (%) ([5]; C 6.47 μg/mL, age of the fungus 9 days): 9% | Inhibition value, I (%) ([5]; C 12.94 μg/mL, age of the fungus 3 days): 26% | Inhibition value, I (%) ([5]; C 12.94 μg/mL, age of the fungus 5 days): 23% | Inhibition value, I (%) ([5]; C 12.94 μg/mL, age of the fungus 7 days): 21% | Inhibition value, I (%) ([5]; C 12.94 μg/mL, age of the fungus 9 days): 10% | Inhibition value, I (%) ([5]; C 25.88 μg/mL, age of the fungus 3 days): 28% | Inhibition value, I (%) ([5]; C 25.88 μg/mL, age of the fungus 5 days): 27% | Inhibition value, I (%) ([5]; C 25.88 μg/mL, age of the fungus 7 days): 32% | Inhibition value, I (%) ([5]; C 25.88 μg/mL, age of the fungus 9 days): 12% | Inhibition value, I (%) ([5]; C 38.82 μg/mL, age of the fungus 3 days): 29% | Inhibition value, I (%) ([5]; C 38.82 μg/mL, age of the fungus 5 days): 28% | Inhibition value, I (%) ([5]; C 38.82 μg/mL, age of the fungus 7 days): 34% | Inhibition value, I (%) ([5]; C 38.82 μg/mL, age of the fungus 9 days): 18% | EC50 ([5]; Fusarium oxysporum, IBPPM543, 168 h, day 7, EC50 = 50C/I, read-out: EC50, μg/mL at day 7): 30.8 µg/mL
